The values below come from US12133916B2, “Process for producing an andrographolide carrier system” (priority 2021, dated 2024).

The data set in a line: Water solubility / water-dispersability comparison (FIG. 1). It counts as physicochemical. As to conditions: dispersed in water, visual.

`C=C1CC[C@@H]2[C@](C)(CO)[C@H](O)CC[C@@]2(C)[C@@H]1C/C=C1/C(=O)OC[C@H]1O` [known 99% andrographolide, Andrographolide]: the “water-dispersability (FIG. 1)” value is listed as “insoluble in water”.
